Assay results reported in a compilation of properties of binary mixtures (doi:10.1016/j.molliq.2020.112718).

Assay: xn = mol fraction of the nth substance listed
Conditions: 100 kPa

With `CCOCC[n+]1ccn(C)c1.C[C@@H](O)[C@H](N)C(=O)[O-]` + O the viscosity (298.15 K, x1 = 0.3157) was 834 mPa·s, the viscosity (298.15 K, x1 = 0.3647) was 889 mPa·s and the viscosity (298.15 K, x1 = 0.4246) was 938 mPa·s. For the same compound, the viscosity (298.15 K, x1 = 0.508) was 990 mPa·s, the viscosity (298.15 K, x1 = 1) was 1133 mPa·s and the viscosity (303.15 K, x1 = 0.3157) was 538 mPa·s. It also gave a viscosity (303.15 K, x1 = 0.3647) of 571 mPa·s, a viscosity (303.15 K, x1 = 0.4246) of 604 mPa·s and a viscosity (303.15 K, x1 = 0.508) of 638 mPa·s. For the same compound, the viscosity (303.15 K, x1 = 0.6189) was 671 mPa·s, the viscosity (303.15 K, x1 = 1) was 730 mPa·s and the viscosity (308.15 K, x1 = 0.3157) was 344 mPa·s. The viscosity (308.15 K, x1 = 0.3647) was 360 mPa·s, the viscosity (308.15 K, x1 = 0.4246) was 376 mPa·s and the viscosity (308.15 K, x1 = 0.508) was 393 mPa·s. It also gave a viscosity (308.15 K, x1 = 0.6189) of 410 mPa·s, a viscosity (308.15 K, x1 = 1) of 439 mPa·s and a viscosity (313.15 K, x1 = 0.3157) of 231 mPa·s. The viscosity (313.15 K, x1 = 0.4246) was 259 mPa·s, the viscosity (313.15 K, x1 = 0.508) was 273 mPa·s and the viscosity (313.15 K, x1 = 0.6189) was 287 mPa·s. For the same compound, the viscosity (313.15 K, x1 = 1) was 313 mPa·s, the viscosity (318.15 K, x1 = 0.3157) was 167 mPa·s and the viscosity (318.15 K, x1 = 0.3647) was 174.5 mPa·s. For the same compound, the viscosity (318.15 K, x1 = 0.4246) was 180.6 mPa·s, the viscosity (318.15 K, x1 = 0.508) was 187.2 mPa·s and the viscosity (318.15 K, x1 = 0.6189) was 195 mPa·s. It also gave a viscosity (318.15 K, x1 = 1) of 207 mPa·s, a viscosity (323.15 K, x1 = 0.4246) of 130.8 mPa·s and a viscosity (323.15 K, x1 = 0.508) of 136.2 mPa·s. For the same compound, the viscosity (323.15 K, x1 = 0.6189) was 143.5 mPa·s, the viscosity (323.15 K, x1 = 1) was 153.8 mPa·s and the viscosity (328.15 K, x1 = 0.3157) was 97.8 mPa·s. The viscosity (328.15 K, x1 = 0.4246) was 102.6 mPa·s and the viscosity (328.15 K, x1 = 0.6189) was 109.6 mPa·s.

In the case of `COCC[n+]1ccn(C)c1.C[C@@H](O)[C@H](N)C(=O)[O-]` + O, the viscosity (298.15 K, x1 = 0.3313) is reported as 740 mPa·s, the viscosity (298.15 K, x1 = 0.3795) is reported as 767 mPa·s and the viscosity (298.15 K, x1 = 0.4475) is reported as 800 mPa·s. It also gave a viscosity (298.15 K, x1 = 0.5347) of 829 mPa·s, a viscosity (298.15 K, x1 = 0.657) of 852 mPa·s and a viscosity (298.15 K, x1 = 1) of 900 mPa·s. It also gave a viscosity (303.15 K, x1 = 0.3313) of 473 mPa·s, a viscosity (303.15 K, x1 = 0.3795) of 500 mPa·s and a viscosity (303.15 K, x1 = 0.4475) of 529 mPa·s. It also gave a viscosity (303.15 K, x1 = 1) of 625 mPa·s, a viscosity (308.15 K, x1 = 0.3795) of 306 mPa·s and a viscosity (308.15 K, x1 = 0.4475) of 320 mPa·s. For the same compound, the viscosity (308.15 K, x1 = 0.5347) was 332 mPa·s, the viscosity (308.15 K, x1 = 0.657) was 344 mPa·s and the viscosity (308.15 K, x1 = 1) was 362 mPa·s. The viscosity (313.15 K, x1 = 0.3313) was 199.2 mPa·s, the viscosity (313.15 K, x1 = 0.3795) was 210 mPa·s and the viscosity (313.15 K, x1 = 0.4475) was 222 mPa·s. The viscosity (313.15 K, x1 = 0.5347) was 233 mPa·s, the viscosity (313.15 K, x1 = 0.657) was 242 mPa·s and the viscosity (313.15 K, x1 = 1) was 260 mPa·s. It also gave a viscosity (318.15 K, x1 = 0.3313) of 139.9 mPa·s, a viscosity (318.15 K, x1 = 0.3795) of 148.1 mPa·s and a viscosity (318.15 K, x1 = 0.4475) of 155.8 mPa·s. It also gave a viscosity (318.15 K, x1 = 0.657) of 171.8 mPa·s, a viscosity (318.15 K, x1 = 1) of 184.4 mPa·s and a viscosity (323.15 K, x1 = 0.3313) of 101.7 mPa·s. For the same compound, the viscosity (323.15 K, x1 = 0.3795) was 108.5 mPa·s, the viscosity (323.15 K, x1 = 1) was 136.8 mPa·s and the viscosity (328.15 K, x1 = 0.3313) was 82.2 mPa·s. It also gave a viscosity (328.15 K, x1 = 0.3795) of 84.9 mPa·s, a viscosity (328.15 K, x1 = 0.4475) of 88.2 mPa·s and a viscosity (328.15 K, x1 = 0.5347) of 91.3 mPa·s. The viscosity (328.15 K, x1 = 0.657) was 94.8 mPa·s and the viscosity (328.15 K, x1 = 1) was 99.6 mPa·s.
